Literature values in patent publication US6528086B2, “Methods and apparatus for drug delivery involving phase changing formulations” (Zars, Inc., priority 1999, dated 2003).

System: tissues
Details: in vivo

CCCCNc1ccc(C(=O)OCCN(C)C)cc1 [Tetracaine]
duration of anesthetic effect compared with lidocaine: longer lasting anesthetic effect on tissues than lidocaine
